The data set is described as follows: log P determination. In kind it is physicochemical. Conditions: for chromatographic logP: HCOOH (acidic); for logP: neutral.

Usually chromatographic logP stands for lipophilicity estimated from chromatographic retention. Low values mean lower lipophilicity, high ones higher lipophilicity. What is called logP is a log measure of how a compound divides between an organic and an aqueous phase. High values mean higher lipophilicity, low ones lower lipophilicity.

Compound `O=[N+]([O-])c1cc(SSc2cc([N+](=O)[O-])c(Cl)cc2Cl)c(Cl)cc1Cl` [Example 5, 1,1′-Disulphanediylbis(2,4-dichloro-5-nitrobenzene)] displayed a chromatographic logP of 5.69 and a logP of 5.64.

In the case of `Nc1cc(SSc2cc(N)c(Cl)cc2Cl)c(Cl)cc1Cl` [Example 14, 3,3′-Disulphanediylbis(4,6-dichloroaniline)], the chromatographic logP was 5.14 and the logP is 4.95.
